In this assay the target is T1, LmbC (with holo-LmbN-CP) (Streptomyces lincolnensis, UniProt A9Y8R4).
T1 construct: gene SLINC_0236; LmbC: stand-alone NRPS adenylation domain, recombinant, produced as described previously; LmbN-CP: stand-alone N-terminal ~80-residue CP domain, C-terminal His-tag, E. coli BL21(DE3), phosphopantetheinylated by Slp (holo); with LmbN, N-terminal carrier protein domain (LmbN-CP)
T1 sequence (A9Y8R4 1-509): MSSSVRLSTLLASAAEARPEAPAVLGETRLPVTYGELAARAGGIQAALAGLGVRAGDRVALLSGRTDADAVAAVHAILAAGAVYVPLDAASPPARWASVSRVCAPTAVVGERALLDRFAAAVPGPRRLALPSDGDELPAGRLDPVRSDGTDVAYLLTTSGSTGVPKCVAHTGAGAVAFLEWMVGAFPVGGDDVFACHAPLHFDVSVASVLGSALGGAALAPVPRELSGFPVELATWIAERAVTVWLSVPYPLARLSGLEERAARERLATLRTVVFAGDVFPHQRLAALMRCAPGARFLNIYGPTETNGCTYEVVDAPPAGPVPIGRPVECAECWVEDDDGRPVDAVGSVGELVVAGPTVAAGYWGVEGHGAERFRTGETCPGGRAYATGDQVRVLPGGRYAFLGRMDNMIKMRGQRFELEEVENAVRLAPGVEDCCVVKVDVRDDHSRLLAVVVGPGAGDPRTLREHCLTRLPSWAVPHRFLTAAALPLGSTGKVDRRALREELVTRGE
T1 sequence (A9Y8S4 1-80 partner limits assumed): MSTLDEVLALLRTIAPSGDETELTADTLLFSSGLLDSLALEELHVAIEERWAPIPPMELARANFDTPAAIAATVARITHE
The assay can be described thus: LC-MS (FT-ICR) of aminoacylated carrier protein. The assay is classed as biochemical. Particulars: 3 mM PPL, 1.2 mM ATP, Mg2+, in vitro or in vivo phosphopantetheinylated LmbN-CP, 0.6 uM LmbC, pH 8.8, 28 C, 50 min; PPL transferred to holo-LmbN-CP (covalent).

As to `CCCC1CN[C@H](C(=O)O)C1` (stereo partly drawn) [4-propyl-L-proline], the “LC-MS (FT-ICR) of aminoacylated carrier protein” value is recorded as “A-domain LmbC together with LmbN-holo-CP activate the PPL precursor of lincomycin”.

Values taken from publication PMC4351081, “Lincosamide Synthetase—A Unique Condensation System Combining Elements of Nonribosomal Peptide Synthetase and Mycothiol Metabolism” (PLoS ONE, 2015).
